Data: patent US5736565A, “Therapeutic compounds suitable for the treatment of diseases connected with glutathione deficiency, process for their preparation, and pharmaceutical compositions containing same” (Prospa B.V., priority 1992, dated 1998)
Values joined by “and” are separate entries in the source; they are usually repeats but may differ in a detail not shown here. Identical values can stand only once.

Columns and labels:
[1] = tested on: hepatic GSH; test: Test No. 1: protection from ethanol acute administration, hepatic GSH content; format: in vivo, male albino Wistar rats; set-up: GSH Content: unit not given beside the values; settings: liver; ethanol 3 g/kg i.p.; test substance 50 mg/kg
Protocol: Protection from ethanol acute administration […] Male albino Wistar rats weighing between 180 and 230 g were used. All animals were fasted for 24 hours prior to administration of isotonic solution, ethanol or ethanol combined with the test substances. As concerns the test substances, rats were intraperitoneally (i.p.) injected with compound of formula I (R=CH3) at doses of 10, 30, and 50 mg/kg and, for purposes of comparison, with the single constituents of compound (I) (R=CH3), […] (O-PRO) and L-cysteine (CIS), both at a 50 mg/kg dose. One hour after administration of the test substance, ethanol was injected i.p. at the dose of 3 g/kg. Thirty minutes later, the animals were sacrificed by decapitation and their liver was excised. […] Orwar et al., J. Chromatrogr., 556, 39-55 (1991).

[2] = tested on: hepatic GSH; test: Test No. 4: dichloropropane (DCP) intoxication in vivo, hepatic GSH; set-up: species or system rat; settings: for normalization of hepatic GSH (in words): DCP-treated rats
Protocol: (§1) A test was carried out in vivo on four groups of four rats each, using, as a toxic substance, dichloropropane (DCP), the main constituent of several solvents. DCP is noxious both by ingestion and inhalation and has a notable toxicity to the liver, mediated by an almost total depletion of thiol groups, including those of GSH.
(§2) The experimental model involves the study of the effect of DCP toxicity in the rat, in respect of glutathione (GSH) concentration in the main target tissue: the liver.
(§3) Tests were carried out on four groups of rats. The first group of animals was administered 2 ml DCP/kg dissolved in oil (40% v/v) per os. Twenty-four hours after DCP administration, blood samples were taken for SGPT measurement, while the animals were sacrificed; small portions of liver were then excised and immediately deproteinized by homogenization in 6% PCA. The chromatographic analyses of GSH and GSSG (oxidized glutathione) were performed.
(§4) The second group of animals was treated with the test drug (600 mg/kg i.p.) two hours after DCP administration. The third and fourth groups were treated with N-acetyl-cysteine (NAC) (250 mg/kg i.p.) and, respectively, with glutathione (Tationil^R) (600 mg/kg i.p.).
An evaluation of the protective action of the test drug in respect of glutathione involvement in hepatic protection mechanisms was thus possible.

[3] = tested on: DCP toxicity in the rat; test: Test No. 4: dichloropropane (DCP) intoxication in vivo, death rate and signs; set-up: key to animal 4, symbol in GSH table: --: dead; settings: DCP + 250 mg/kg i.p.
Protocol: as §1, §2, §3, §4

Compound | GSH Content [1] | normalization of hepatic GSH (in words) [2] | GSH, average values ([2]; liver, DCP 2 ml/kg per os + 250 mg/kg i.p.) [nmol/mg protein] | GSH, individual animals ([2]; liver, DCP 2 ml/kg per os + 250 mg/kg i.p., animals 1-3, 250 mg/kg) | animal 4, symbol in GSH table [3]
N[C@@H](CS)C(=O)O [CIS, L-cysteine, reference compound] | 2.7 ± 0.3 |  |  |  | 
N[C@@H](CCC(=O)N[C@@H](CS)C(=O)NCC(=O)O)C(=O)O [GSH, glutathione] | 3.5 ± 0.6 | could not normalize the values of hepatic GSH |  |  | 
CC(=O)N[C@@H](CS)C(=O)O [NAC, N-acetyl-L-cysteine, reference compound] |  | could not normalize the values of hepatic GSH | 2.4 | 2.0 nmol/mg protein and 2.9 nmol/mg protein and 2.3 nmol/mg protein | --
O=C1CC[C@@H](C(=O)O)N1 [O-PRO, 5-oxy-L-proline, reference compound] | 3.4 ± 0.3 |  |  |  | 
